Results from ChEMBL document CHEMBL3885861, “Open TG-GATES”.

Species on record: Rattus norvegicus
Assay: Open TG-GATES - Regimen: Single
Format: toxicity, organism-based, Sprague-Dawley
Set-up: regimen Single, gender Male, age 6 weeks
Settings: in vivo, po, 200 mg/kg, route gavage, dose level Middle; for APTT / Bas / Eos / Fbg / Hb / Ht / Lym / MCH / MCHC / MCV / Mono / Neu / PT / Plat / RBC / Ret / WBC: tissue Blood; for KIDNEY_L / KIDNEY_R / KIDNEY_TOTAL: tissue Kidney; for LIVER: tissue Liver; for A/G / ALP / ALT / AST / BUN / CRE / Ca / Cl / DBIL / GLC / IP / K / LDH / Na / PL / RALB / TBIL / TC / TG / TP / gamma-GTP: tissue Plasma

C[C@](N)(Cc1ccc(O)c(O)c1)C(=O)O [METHYLDOPA]
TERMINAL_BW (3 h): 187.9 g
APTT (3 h): 15.7 s
Bas (3 h): 0.2%
Eos (3 h): 0.8%
Fbg (3 h): 274 mg/dL
Hb (3 h): 13.1 g/dL
Ht (3 h): 39.2%
Lym (3 h): 79%
MCH (3 h): 21.5 pg
MCHC (3 h): 33.4%
MCV (3 h): 64.6 fL
Mono (3 h): 3.4%
Neu (3 h): 15.8%
PT (3 h): 12.4 s
Plat (3 h): 105.6 x10_4/uL
RBC (3 h): 607 x10_4/ul
Ret (3 h): 10.7%
WBC (3 h): 91.2 x10_2/uL
KIDNEY_L (3 h): 0.9 g
KIDNEY_R (3 h): 0.8 g
KIDNEY_TOTAL (3 h): 1.7 g
LIVER (3 h): 7.8 g
A/G (3 h): 0.9
ALP (3 h): 1861.2 IU/L
ALT (3 h): 55 IU/L
AST (3 h): 80.2 IU/L
BUN (3 h): 9 mg/dL
CRE (3 h): 0.1 mg/dL
Ca (3 h): 11.4 mg/dL
Cl (3 h): 107.2 meq/L
DBIL (3 h): 0.008 mg/dL
GLC (3 h): 205.8 mg/dL
IP (3 h): 9.8 mg/dL
K (3 h): 4.6 meq/L
LDH (3 h): 64.4 IU/L
Na (3 h): 142.2 meq/L
PL (3 h): 129.2 mg/dL
RALB (3 h): 2.6 g/dL
TBIL (3 h): 0.058 mg/dL
TC (3 h): 78.6 mg/dL
TG (3 h): 45 mg/dL
TP (3 h): 5.4 g/dL
gamma-GTP (3 h): 1.2 IU/L
TERMINAL_BW (6 h): 189 g
APTT (6 h): 16.4 s
Bas (6 h): 0%
Eos (6 h): 0.6%
Fbg (6 h): 267.4 mg/dL
Hb (6 h): 13.5 g/dL
Ht (6 h): 41.1%
Lym (6 h): 73.8%
MCH (6 h): 21.1 pg
MCHC (6 h): 32.8%
MCV (6 h): 64.3 fL
Mono (6 h): 3%
Neu (6 h): 22.2%
PT (6 h): 12.2 s
Plat (6 h): 120.2 x10_4/uL
RBC (6 h): 640.2 x10_4/ul
Ret (6 h): 11.7%
WBC (6 h): 56.8 x10_2/uL
KIDNEY_L (6 h): 0.8 g
KIDNEY_R (6 h): 0.8 g
KIDNEY_TOTAL (6 h): 1.6 g
LIVER (6 h): 7.9 g
A/G (6 h): 0.9
ALP (6 h): 1438.2 IU/L
ALT (6 h): 48.2 IU/L
AST (6 h): 71.6 IU/L
BUN (6 h): 6.6 mg/dL
CRE (6 h): 0.1 mg/dL
Ca (6 h): 11.8 mg/dL
Cl (6 h): 107 meq/L
DBIL (6 h): 0.006 mg/dL
GLC (6 h): 219.4 mg/dL
IP (6 h): 13 mg/dL
K (6 h): 5.3 meq/L
LDH (6 h): 58.8 IU/L
Na (6 h): 144.6 meq/L
PL (6 h): 130.2 mg/dL
RALB (6 h): 2.5 g/dL
TBIL (6 h): 0.054 mg/dL
TC (6 h): 85.8 mg/dL
TG (6 h): 45.8 mg/dL
TP (6 h): 5.3 g/dL
gamma-GTP (6 h): 1 IU/L
TERMINAL_BW (9 h): 186.6 g
APTT (9 h): 16.1 s
Bas (9 h): 0%
Eos (9 h): 1.2%
Fbg (9 h): 268.6 mg/dL
Hb (9 h): 13.1 g/dL
Ht (9 h): 38.8%
Lym (9 h): 77.6%
MCH (9 h): 22.3 pg
MCHC (9 h): 33.8%
MCV (9 h): 66 fL
Mono (9 h): 2.8%
Neu (9 h): 17.6%
PT (9 h): 12.2 s
Plat (9 h): 121.1 x10_4/uL
RBC (9 h): 588.8 x10_4/ul
Ret (9 h): 10.8%
WBC (9 h): 53.5 x10_2/uL
KIDNEY_L (9 h): 0.8 g
KIDNEY_R (9 h): 0.8 g
KIDNEY_TOTAL (9 h): 1.6 g
LIVER (9 h): 7.2 g
A/G (9 h): 0.9
ALP (9 h): 1466.4 IU/L
ALT (9 h): 43.4 IU/L
AST (9 h): 71.8 IU/L
BUN (9 h): 7 mg/dL
CRE (9 h): 0.1 mg/dL
Ca (9 h): 11 mg/dL
Cl (9 h): 107 meq/L
DBIL (9 h): 0.008 mg/dL
GLC (9 h): 203.2 mg/dL
IP (9 h): 11.2 mg/dL
K (9 h): 4.9 meq/L
LDH (9 h): 57.4 IU/L
Na (9 h): 143.6 meq/L
PL (9 h): 131.6 mg/dL
RALB (9 h): 2.5 g/dL
TBIL (9 h): 0.07 mg/dL
TC (9 h): 83.6 mg/dL
TG (9 h): 49.6 mg/dL
TP (9 h): 5.3 g/dL
gamma-GTP (9 h): 1 IU/L
TERMINAL_BW (24 h): 192.7 g
APTT (24 h): 16 s
Bas (24 h): 0%
Eos (24 h): 1%
Fbg (24 h): 251.2 mg/dL
Hb (24 h): 13.2 g/dL
Ht (24 h): 39.1%
Lym (24 h): 75.4%
MCH (24 h): 22.1 pg
MCHC (24 h): 33.9%
MCV (24 h): 65.1 fL
Mono (24 h): 2.8%
Neu (24 h): 20.4%
PT (24 h): 12.6 s
Plat (24 h): 115.8 x10_4/uL
RBC (24 h): 600.4 x10_4/ul
Ret (24 h): 9.3%
WBC (24 h): 76.2 x10_2/uL
KIDNEY_L (24 h): 0.9 g
KIDNEY_R (24 h): 0.8 g
KIDNEY_TOTAL (24 h): 1.7 g
LIVER (24 h): 8.9 g
A/G (24 h): 0.9
ALP (24 h): 1671.8 IU/L
ALT (24 h): 58.2 IU/L
AST (24 h): 80.8 IU/L
BUN (24 h): 15.8 mg/dL
CRE (24 h): 0.2 mg/dL
Ca (24 h): 11.4 mg/dL
Cl (24 h): 107.6 meq/L
DBIL (24 h): 0.014 mg/dL
GLC (24 h): 191 mg/dL
IP (24 h): 8.6 mg/dL
K (24 h): 4.6 meq/L
LDH (24 h): 73.6 IU/L
Na (24 h): 144.4 meq/L
PL (24 h): 136.4 mg/dL
RALB (24 h): 2.6 g/dL
TBIL (24 h): 0.064 mg/dL
TC (24 h): 80 mg/dL
TG (24 h): 68.6 mg/dL
TP (24 h): 5.5 g/dL
gamma-GTP (24 h): 1 IU/L
